Experiments:
brain cell apoptosis [1] = assay: Apoptosis determination (TUNEL method), cerebral ischemic reperfusion MCAO model; assay type: in vivo, SD rats
Experimental: (§1) Rats were intraperitoneally injected with 10% chloral hydrate 350 mg/kg after anesthesia and opened up at the center of the neck in accordance with the Zea Longa modified method. The right common carotid artery was separated, and the right external carotid artery branches was ligated. A small opening was made at the distal end of the external carotid artery, and a previously prepared thread was inserted through the common carotid artery and the external carotid artery bifurcation into the internal carotid artery, till the anterior end of the middle cerebral artery, with an immersed depth of 18 to 19 mm. The thread was then secured, and the wound was sutured layer by layer. After the operation, the rats were placed in a clean incubator to wake up. […] The sham operation group, the ischemic reperfusion group, and the Example groups were prepared strictly according to the requirements of the cerebral ischemic reperfusion model, while in the sham operation group the thread was put only into the external carotid artery. The animals were allowed to eat and drink freely after waking up. After 2 h, the thread was pulled out to achieve reperfusion. The sham operation group, the ischemic reperfusion group, and the Example groups were administered intravenously the aqueous solution of the biphenyl derivatives in PEG400 at 40 mg/kg (40 mg/kg means that 40 mg of the test compound per kg of the body weight of rats) 30 min before reperfusion and 12 h after reperfusion, respectively. The sham operation group and the ischemic reperfusion group were injected with the same amount of blank PEG400 aqueous solution at the same time point.
(§2) 24 hours after reperfusion, 8 rats in each group were sacrificed by decapitation, the brain was removed, rinsed with PBS (pH 7.4) at −20° i for 20 min, evenly sliced (with a thickness of 2 mm), stained in a 2% TTC solution at 37°% in the dark for 30 min, fixed in 10% formalin for 24 h, and photographs were taken to analyze the infarct volume. A mixture of femoral arterial and venous blood was drawn from another 8 rats in each group under anesthesia, placed in a low temperature centrifuge at 4° C., centrifuged at 3500 r/min for 20 min, and the supernatant was stored in a refrigerator at −20° C. ready for SOD and MDA detection. After the blood was drawn, a perfusion needle was insert through the apex to the ascending aorta, and saline at 4° C. was rapid infused until the effluent became clear, followed by 4% paraformaldehyde phosphate buffer perfusion for fixation; the brain was removed by craniotomy, and brain tissues 2 mm in front of and behind the optic chiasma were taken and fixed, dehydrated, rendered transparent, impregnated in wax, and embedded. Brain continuous coronary tissue pathological sections were consecutively cut for later use. The remaining 8 rats in each group were sacrificed, brains were removed, the ischemic brain hemispheres were immediately taken on an ice tray, and 10% brain tissue homogenate was prepared for the detection of IL-1β and TNF-α.
(§3) The TUNEL method was used for determination. Brain tissue paraffin sections were dewaxed into water, washed with 3% H2O2 to eliminate endogenous peroxidase activity, and rinsed with distilled water for 2 min, repeated 3 times. A labelling solution was added for labelling at 37°t for 2 h, and a blocking solution was added for blocking at room temperature for 30 min. A biotinylated anti-digoxin antibody was added for a reaction at 37°a for 30 min, and SABC was added for a reaction at 37°a for 30 min. The sections were continuously rinsed with TBS for 5 min repeatedly for 4 times, stained with DAB, sufficiently washed, mild counterstained with Hematoxylin, gradient dehydrated with alcohol, made transparent with toluene, sealed and fixed. Five non-overlapping fields in semi-dark band were randomly selected from each section and inputted into the image analysis system.

brain cell apoptosis [2] = assay: Apoptosis determination (TUNEL method), permanent cerebral ischemia model; assay type: in vivo, SD rats
Experimental: as §1, with “the permanent cerebral ischemia model” for “the ischemic reperfusion”, “up.” for “up. After 2 h, the thread was pulled out to achieve reperfusion.”, “before insertion of thread” for “before reperfusion”, “after embolism,” for “after reperfusion,”
as §2, with “the embolism,” for “reperfusion,”, “−20°i” for “−20° i”
as §3, with “system. The number of apoptotic cells was counted, and the average was designated the number of apoptotic cells.” for “system.”

[3] = ischemic reperfusion MCAO rats, 40 mg/kg intravenously, brain sections 24 h after reperfusion, TUNEL, average of five fields
[4] = permanent cerebral ischemia model rats, 40 mg/kg intravenously, brain sections 24 h after the embolism, TUNEL, average of five fields

Q: How did the “Number of apoptotic cells” value (brain cell apoptosis [1]; rat, in vivo, iv, 40 mg/kg) turn out when “3,3′,5,5′-tetraisopropylbiphenyl-4,4′-bis(oxymethylene phosphate) [Example 3 group]” was run?
A: 25.14 ± 2.54

Q: What about the “Number of apoptotic cells” value (brain cell apoptosis [2]; rat, in vivo, iv, 40 mg/kg) of the same molecule?
A: 29.72 ± 3.43

Q: What does the source list for `CC1=NN(c2ccccc2)C(=O)C1` [Edaravone injection, edaravone, reference compound]?
A: Number of apoptotic cells (brain cell apoptosis [1]; ischemic reperfusion rat model, edaravone 3 mg/kg): 28.6 ± 4.90; Number of apoptotic cells (brain cell apoptosis [2]; permanent cerebral ischemia model rats, edaravone 3 mg/kg): 33.19 ± 3.81

Q: How did the “Number of apoptotic cells” value (brain cell apoptosis [1]; [3]) turn out when `CC(=O)Oc1c(C(C)C)cc(-c2cc(C(C)C)c(OC(C)=O)c(C(C)C)c2)cc1C(C)C` [Example 2 group, 3,3′,5,5′-tetraisopropylbiphenyl-4′-diacetate] was run?
A: 24.65 ± 3.41

Q: And the “Number of apoptotic cells” value (brain cell apoptosis [2]; [4])?
A: 23.27 ± 3.78

Q: Which results are given for `CC(C)c1cc(-c2cc(C(C)C)c(OC(=O)CCC(=O)O)c(C(C)C)c2)cc(C(C)C)c1O` [Example 5 group, [4-(4′-hydroxy-3,3′,5,5′-tetraisopropylbiphenyl)oxy]-4-carbonyl butyric acid]?
A: Number of apoptotic cells (brain cell apoptosis [1]; [3]): 20.56 ± 4.29; Number of apoptotic cells (brain cell apoptosis [2]; [4]): 23.48 ± 3.62

Q: Which “Number of apoptotic cells” value (brain cell apoptosis [1]; [3]) does the source give for `CCCc1cc(-c2cc(CCC)c(O)c(C(C)C)c2)cc(C(C)C)c1O` [Example 6 group, 4,4′-dihydroxy-3,3′-diisopropyl-5,5′-dipropylbiphenyl] here?
A: 19.47 ± 5.02

Q: And the “Number of apoptotic cells” value (brain cell apoptosis [2]; [4])?
A: 21.24 ± 5.30

Q: How did the “Number of apoptotic cells” value (brain cell apoptosis [1]; [3]) turn out when `CCCc1cc(-c2cc(CCC)c(O)c(CCC)c2)cc(CCC)c1O` [Example 7 group, 4,4′-dihydroxy-3,3′,5,5′-tetrapropylbiphenyl] was run?
A: 20.28 ± 3.76

Q: And the “Number of apoptotic cells” value (brain cell apoptosis [2]; [4])?
A: 20.32 ± 4.19

Q: `CC(C)c1cc(-c2cc(C(C)C)c(C(=O)O)c(C(C)C)c2)cc(C(C)C)c1O` [Example 8 group, 4′-hydroxy-3,3′,5,5′-tetraisopropylbiphenyl-4-carboxylic acid] was tested. Which “Number of apoptotic cells” value (brain cell apoptosis [1]; [3]) did it give?
A: 24.81 ± 3.35

Q: What about the “Number of apoptotic cells” value (brain cell apoptosis [2]; [4]) of the same molecule?
A: 27.74 ± 4.20

Q: What does the source list for `CC(C)c1cc(-c2cc(C(C)C)c(Cl)c(C(C)C)c2)cc(C(C)C)c1O` [Example 9 group, 4-chloro-4′-hydroxy-3,3′,5,5′-tetraisopropylbiphenyl]?
A: Number of apoptotic cells (brain cell apoptosis [1]; rat, in vivo, iv, 40 mg/kg): 25.47 ± 4.19; Number of apoptotic cells (brain cell apoptosis [2]; rat, in vivo, iv, 40 mg/kg): 31.44 ± 5.19

Q: With `CC(C)c1cc(-c2cc(C(C)C)c(OC=O)c(C(C)C)c2)cc(C(C)C)c1O` [Example 10 group] as the molecule, how does the “Number of apoptotic cells” value (brain cell apoptosis [1]; [3]) read?
A: 22.18 ± 5.22

Q: And the “Number of apoptotic cells” value (brain cell apoptosis [2]; [4])?
A: 23.67 ± 5.13

Q: Which results are given for `CC(C)c1cc(-c2cc(C(C)C)c(OC(=O)C(N)C(C)C)c(C(C)C)c2)cc(C(C)C)c1O` (stereo not shown) [Example 11 group, 4′-hydroxy-3,3′,5,5′-tetraisopropylbiphenyl-2-amino-3-methylbutyrate]?
A: Number of apoptotic cells (brain cell apoptosis [1]; [3]): 24.19 ± 4.29; Number of apoptotic cells (brain cell apoptosis [2]; [4]): 26.31 ± 3.86

Q: What does the source list for `CC(=O)OC(C)Oc1c(C(C)C)cc(-c2cc(C(C)C)c(O)c(C(C)C)c2)cc1C(C)C` (stereo not shown) [Example 12 group, Ethyl 1-(4′-hydroxy-3,3′,5,5′-tetraisopropylbiphenyl-4-oxo)acetate]?
A: Number of apoptotic cells (brain cell apoptosis [1]; [3]): 26.27 ± 5.37; Number of apoptotic cells (brain cell apoptosis [2]; [4]): 32.45 ± 4.21

Source: US10329243B2, “Biphenyl derivative and uses thereof” (XI'AN LIBANG PHARMACEUTICAL CO., LTD, priority 2015, dated 2019)
